Measured values taken from US20170065564A1, “BIS-CYCLIC GUANIDINE COMPOUND COMPOSITIONS, METHODS OF USE AND TREATMENT THEREOF” (University of South Florida, priority 2014, published 2017).

Key:
[1] = tested on: P. aeruginosa; experiment: MIC reanalysis in the presence of the efflux inhibitor reserpine; type: cell-based, Pseudomonas aeruginosa; settings: P. aeruginosa isolate 1420; 100 μM of reserpine or 2 μM of compound 1 individually
From the text: Given the minor variations observed in MIC for three of the Gram-negative organisms, and that these particular bacteria are renowned for efflux detoxification of antibacterial agents, we hypothesized that the differences observed likely relate to variation in efflux pump activity between strains. […] The effects observed appear to be universal, regardless of strain or compound tested. […] It should be noted that the data presented herein represents a worst-case scenario. […] Similar data was returned for all front runner agents, against all 10 isolates of the three Gram-negative organisms (data not shown). These findings support the hypothesis that inherent efflux mechanisms of certain Gram-negative organisms result in MIC variations for the lead bis-cyclic guanidines between clinical isolates.

[2] = tested on: K. pneumoniae; experiment: Resistance serial passage assay; type: cell-based, Klebsiella pneumoniae; settings: 8 passages, concentration doubled each day
Procedure: (§1) ESKAPE pathogens were grown overnight in liquid media at 37° C. These cultures were then diluted 1:100 in fresh media, and seeded into a 96-well plate. Lead bis-cyclic guanidines or control agents were added to respective wells at half MIC concentrations. Plates were then incubated for 24 hours at 37° C., with bacteria removed from these cultures on the following day, to inoculate fresh media (1:100 dilution) containing compounds at a 2-fold higher concentrations. These were then grown overnight, and the procedure repeated for a total of eight days. […] Each experiment was performed in triplicate, yielding identical results.

[3] = tested on: human red blood cells (hRBCs)
Procedure: A hemolysis assay was performed using whole human blood (Bioreclamation), as described previously,^47 with the following modifications. Human red blood cells (hRBCs) were resuspended 20% v/v in 1× HA buffer (4.25 ml 10% NaCl; 1 ml CaCl2 in 50 ml sterile water), and lead agents were added at a concentration of 10 μM, to a final volume of 100 μl. Cells were incubated for 15 minutes at 37° C. before being centrifuged at 5,500 g for 1 minute to pellet non-lysed hRBCs. The supernatant was removed, added to a 96-well microtiter plate and the OD543 read using a Biotek synergy2 plate reader. The negative control was vehicle only (DMF), and the positive control was 1.0% triton X-100.

[4] = tested on: E. faecium; experiment: Resistance serial passage assay; type: cell-based, Enterococcus faecium; settings: 8 passages, concentration doubled each day
Procedure: as §1

[5] = tested on: A. baumannii; experiment: Resistance serial passage assay; type: cell-based, Acinetobacter baumannii; settings: 8 passages, concentration doubled each day
Procedure: as §1

[6] = tested on: S. aureus; experiment: Resistance serial passage assay; type: cell-based, Staphylococcus aureus; settings: 8 passages, concentration doubled each day
Procedure: as §1

[7] = tested on: Staphylococcus aureus (USA300 strain FPR3757); experiment: Murine model of lethal peritonitis; type: in vivo, mice; settings: I.V.
Procedure: Using MRSA as a representative ESKAPE organism, we infected mice with 1×10^8 bacterial cells in 5% mucin via intraperitoneal injection. At 1 h post-infection, mice were then I.V. injected with either vancomycin (positive control), or I.M. with our front runner compounds.
Six mice per group were injected with 1×10^8 CFU ml^−1 of Staphylococcus aureus (USA300 strain FPR3757) in PBS containing 5% mucin. […] Mice were monitored twice daily for five days to assess mortality. The clinical endpoint of this study was when the mice reached a pre-moribund state. Characteristics of pre-moribund state include: hunched posture, rapid, shallow and/or labored breathing, ruffled fur, lethargy, failure to respond to stimuli, soiled anogenital area, paralysis, paresis, head tilt, circling, vocalizations, non-purposeful movements and/or were unable to eat or drink. Those mice reaching this state prior to the completion of the 5 day infection period were euthanized. The number of mice surviving between control and treatment groups was compared and analyzed for statistical significance using a log rank test.

COC(=O)[C@H]1[C@H]2C[C@@H]3c4[nH]c5cc(OC)ccc5c4CCN3C[C@H]2C[C@@H](OC(=O)c2cc(OC)c(OC)c(OC)c2)[C@@H]1OC [reserpine, reference compound]
effect on growth, agent alone [1]: no effect

CO[C@H]1/C=C/O[C@@]2(C)Oc3c(C)c(O)c4c(O)c(c(/C=N/N5CCN(C)CC5)c(O)c4c3C2=O)NC(=O)/C(C)=C\C=C\[C@H](C)[C@H](O)[C@@H](C)[C@@H](O)[C@@H](C)[C@H](OC(C)=O)[C@@H]1C [rifampin, reference compound]
increase in MIC after serial passage [2]: 128 fold

Triton-X100
hemolysis [3]: 100%

CN(C)[C@@H]1C(O)=C(C(N)=O)C(=O)[C@@]2(O)C(O)=C3C(=O)c4c(O)cccc4[C@@](C)(O)[C@H]3C[C@@H]12 [tetracycline, reference compound]
increase in MIC after serial passage [4]: 128 fold
increase in MIC after serial passage [5]: 128 fold

CN[C@H](CC(C)C)C(=O)N[C@H]1C(=O)N[C@@H](CC(N)=O)C(=O)N[C@H]2C(=O)N[C@H]3C(=O)N[C@H](C(=O)N[C@H](C(=O)O)c4cc(O)cc(O)c4-c4cc3ccc4O)[C@H](O)c3ccc(c(Cl)c3)Oc3cc2cc(c3O[C@@H]2O[C@H](CO)[C@@H](O)[C@H](O)[C@H]2O[C@H]2C[C@](C)(N)[C@H](O)[C@H](C)O2)Oc2ccc(cc2Cl)[C@H]1O [vancomycin, reference compound]
increase in MIC after serial passage [6]: 128 fold
protectivity ([7]; 5× MIC, 1 h post-infection (not significant)): 50%
protectivity ([7]; 10× MIC, 1 h post-infection): 100%
